Assay results published in the supplement of paper PMC11061612.

Tests used:
[1] = test system: SNU-16 (Gastric Carcinoma); experiment: combination Emax (second highest fraction inhibited in the dose matrix, 72 h); higher = more inhibition; extreme values may be limits of the assay
Summary of the method: (§1)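 After 24 hours at 37°C and 5% CO2 in 1536-well plates, cells in DMEM/F12 or RPMI plus 10% FBS received two-drug dose matrices for 72 hours. Viability came from CellTiter-Glo 2.0 luminescence and was scaled as inhibition, anchored at 0 by vehicle wells and at 1 by blank wells. Combination Emax is taken as the second-highest inhibition in the matrix, and Bliss excess as the observed combination effect less EA + EB − EA·EB, with EA and EB the single-agent effects.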

[2] = test system: WSU-NHL (B-Cell Non-Hodgkin's Lymphoma); experiment: as above
Summary of the method: as §1

[3] = test system: KYAE-1 (Esophageal Adenocarcinoma); experiment: as above
Summary of the method: as §1

[4] = test system: LS-123 (Colorectal Carcinoma); experiment: as above
Summary of the method: as §1

[5] = test system: BE-13 (T-Lymphoblastic Leukemia); experiment: as above
Summary of the method: as §1

[6] = test system: NCI-H524 (Small Cell Lung Carcinoma); experiment: as above
Summary of the method: as §1

[7] = test system: GAMG (Glioblastoma); experiment: as above
Summary of the method: as §1

[8] = test system: HH (T-Cell Non-Hodgkin's Lymphoma); experiment: as above
Summary of the method: as §1

[9] = test system: KS-1 (Glioblastoma); experiment: as above
Summary of the method: as §1

[10] = test system: HuCCT1 (Biliary Tract Carcinoma); experiment: as above
Summary of the method: as §1

[11] = test system: EW-11 (Ewing's Sarcoma); experiment: as above
Summary of the method: as §1

[12] = test system: ESS-1 (Other Solid Carcinomas); experiment: as above
Summary of the method: as §1

[13] = test system: MPP-89 (Mesothelioma); experiment: as above
Summary of the method: as §1

[14] = test system: SW1710 (Bladder Carcinoma); experiment: as above
Summary of the method: as §1

[15] = test system: A673 (Ewing's Sarcoma); experiment: as above
Summary of the method: as §1

[16] = test system: LOXIMVI (Melanoma); experiment: as above
Summary of the method: as §1

[17] = test system: TGBC1TKB (Biliary Tract Carcinoma); experiment: as above
Summary of the method: as §1

[18] = test system: YAPC (Pancreatic Carcinoma); experiment: as above
Summary of the method: as §1

[19] = test system: OVCAR-5 (Ovarian Carcinoma); experiment: as above
Summary of the method: as §1

[20] = test system: LNZTA3WT4 (Low Grade Glioma); experiment: as above
Summary of the method: as §1

[21] = test system: SAS (Oral Cavity Carcinoma); experiment: as above
Summary of the method: as §1

[22] = test system: SNU-449 (Hepatocellular Carcinoma); experiment: as above
Summary of the method: as §1

[23] = test system: CAL-72 (Osteosarcoma); experiment: as above
Summary of the method: as §1

[24] = test system: SNU-16 (Gastric Carcinoma); experiment: Bliss excess, mean over the matrix (fraction); higher = more synergy
Summary of the method: as §1

[25] = test system: WSU-NHL (B-Cell Non-Hodgkin's Lymphoma); experiment: as above
Summary of the method: as §1

[26] = test system: KYAE-1 (Esophageal Adenocarcinoma); experiment: as above
Summary of the method: as §1

[27] = test system: LS-123 (Colorectal Carcinoma); experiment: as above
Summary of the method: as §1

[28] = test system: BE-13 (T-Lymphoblastic Leukemia); experiment: as above
Summary of the method: as §1

[29] = test system: NCI-H524 (Small Cell Lung Carcinoma); experiment: as above
Summary of the method: as §1

[30] = test system: GAMG (Glioblastoma); experiment: as above
Summary of the method: as §1

[31] = test system: HH (T-Cell Non-Hodgkin's Lymphoma); experiment: as above
Summary of the method: as §1

[32] = test system: KS-1 (Glioblastoma); experiment: as above
Summary of the method: as §1

[33] = test system: HuCCT1 (Biliary Tract Carcinoma); experiment: as above
Summary of the method: as §1

[34] = test system: EW-11 (Ewing's Sarcoma); experiment: as above
Summary of the method: as §1

[35] = test system: ESS-1 (Other Solid Carcinomas); experiment: as above
Summary of the method: as §1

[36] = test system: MPP-89 (Mesothelioma); experiment: as above
Summary of the method: as §1

[37] = test system: SW1710 (Bladder Carcinoma); experiment: as above
Summary of the method: as §1

[38] = test system: A673 (Ewing's Sarcoma); experiment: as above
Summary of the method: as §1

[39] = test system: LOXIMVI (Melanoma); experiment: as above
Summary of the method: as §1

[40] = test system: TGBC1TKB (Biliary Tract Carcinoma); experiment: as above
Summary of the method: as §1

[41] = test system: YAPC (Pancreatic Carcinoma); experiment: as above
Summary of the method: as §1

[42] = test system: OVCAR-5 (Ovarian Carcinoma); experiment: as above
Summary of the method: as §1

[43] = test system: LNZTA3WT4 (Low Grade Glioma); experiment: as above
Summary of the method: as §1

[44] = test system: SAS (Oral Cavity Carcinoma); experiment: as above
Summary of the method: as §1

[45] = test system: SNU-449 (Hepatocellular Carcinoma); experiment: as above
Summary of the method: as §1

[46] = test system: CAL-72 (Osteosarcoma); experiment: as above
Summary of the method: as §1
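Wherever Bliss excess, mean over the matrix is given: after 72 h of two-drug dosing.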

Structure (SMILES): C[C@@H](Nc1cc(F)cc(F)c1)c1cc(C(=O)N(C)C)cc2c(=O)cc(N3CCOCC3)oc12 [AZD8186] + C1CN(CCC1(C(=O)N[C@@H](CCO)C2=CC=C(C=C2)Cl)N)C3=NC=NC4=C3C=CN4 [AZD5363] (first compound max 10 µM, 7x7, partner max 10 µM)
- combination Emax [1]: 0.22
- combination Emax [2]: 0.9
- combination Emax [3]: 0.154
- combination Emax [4]: 0.408
- combination Emax [5]: 0.16
- combination Emax [6]: 0.224
- combination Emax [7]: 0.657
- combination Emax [8]: 0.299
- combination Emax [9]: 0.458
- combination Emax [10]: 0.413
- combination Emax [11]: 0.579
- combination Emax [12]: 0.549
- combination Emax [13]: 0.382
- combination Emax [14]: 0.495
- combination Emax [15]: 0.253
- combination Emax [16]: 0.287
- combination Emax [17]: 0.559
- combination Emax [18]: 0.246
- combination Emax [19]: 0.432
- combination Emax [20]: 0.357
- combination Emax [21]: 0.364
- combination Emax [22]: 0.198
- combination Emax [23]: 0.29
- Bliss excess [24]: -0.0549
- Bliss excess [25]: -0.0018
- Bliss excess [26]: -0.0101
- Bliss excess [27]: -0.0327
- Bliss excess [28]: -0.028
- Bliss excess [29]: -0.0342
- Bliss excess [30]: -0.0849
- Bliss excess [31]: -0.125
- Bliss excess [32]: -0.0233
- Bliss excess [33]: -0.0171
- Bliss excess [34]: -0.0265
- Bliss excess [35]: -0.0165
- Bliss excess [36]: -0.0635
- Bliss excess [37]: -0.0408
- Bliss excess [38]: 0.0084
- Bliss excess [39]: -0.0495
- Bliss excess [40]: 0.0539
- Bliss excess [41]: -0.0214
- Bliss excess [42]: -0.0442
- Bliss excess [43]: -0.0615
- Bliss excess [44]: -0.0226
- Bliss excess [45]: -0.0206
- Bliss excess [46]: -0.0293

Structure (SMILES): Cc1cc2ncnn2cc1Nc1ncc2c(n1)n(C1CCOCC1)c(=O)n2C [AZD7648] + COc1cc([C@@H]2c3cc4c(cc3[C@@H](O[C@@H]3O[C@@H]5CO[C@@H](C)O[C@H]5[C@H](O)[C@H]3O)[C@H]3COC(=O)[C@H]23)OCO4)cc(OC)c1O [Etoposide] (first compound max 10 µM, 7x7, partner max 10 µM)
- combination Emax [1]: 0.794
- combination Emax [2]: 1
- combination Emax [3]: 0.547
- combination Emax [4]: 0.884
- combination Emax [5]: 0.976
- combination Emax [6]: 0.617
- combination Emax [7]: 0.872
- combination Emax [8]: 0.141
- combination Emax [9]: 0.431
- combination Emax [10]: 0.648
- combination Emax [11]: 0.682
- combination Emax [12]: 1
- combination Emax [13]: 0.604
- combination Emax [14]: 0.301
- combination Emax [15]: 0.855
- combination Emax [16]: 0.699
- combination Emax [17]: 0.326
- combination Emax [18]: 0.531
- combination Emax [19]: 0.546
- combination Emax [20]: 0.794
- combination Emax [21]: 0.985
- combination Emax [22]: 0.296
- combination Emax [23]: 0.822
- Bliss excess [24]: 0.0953
- Bliss excess [25]: 0.0848
- Bliss excess [26]: 0.0032
- Bliss excess [27]: 0.0811
- Bliss excess [28]: 0.0881
- Bliss excess [29]: 0.101
- Bliss excess [30]: 0.147
- Bliss excess [31]: -0.0254
- Bliss excess [32]: 0.0894
- Bliss excess [33]: 0.0335
- Bliss excess [34]: 0.0002
- Bliss excess [35]: 0.113
- Bliss excess [36]: 0.0858
- Bliss excess [37]: -0.0119
- Bliss excess [38]: 0.111
- Bliss excess [39]: 0.0988
- Bliss excess [40]: 0.0108
- Bliss excess [41]: 0.0217
- Bliss excess [42]: 0.0481
- Bliss excess [43]: 0.102
- Bliss excess [44]: 0.118
- Bliss excess [45]: 0.0282
- Bliss excess [46]: 0.0314
